Laboratory results from patent US5994320A, “Antisense oligonucleotides and methods for treating central nervous system tumors” (Regents of the University of Minnesota, priority 1997, dated 1999).

Experiments:
[1] = Toxicity of intraventricular antisense administration (Whitesell et al.); assay type: in vivo, rats; conditions: 0.1 nmole/hr versus toxic 3.0 nmole/hr
Procedure: In a study assessing the toxicity of intraventricular antisense administration (Whitesell et al., Proc. Natl. Acad. Sci., 90:4665-4669, 1993), it was determined that dosages of 1.5 nmoles/hr were well tolerated in rats while a dose of 3.0 nmole/hr was toxic. […] Therefore, it is believed that an increase in dose of the c-myb antisense can be administered that will improve survival without toxic side effects.

[2] = test system: U373 glioblastoma cell line; test: 3H-thymidine assay of U373 cell proliferation; assay type: cell-based, human; conditions: U373 cells, 5 nanomoles/500 microliters; for 3H-thymidine incorporation, mean ± SEM: 2 days; for % Control (proliferation): 2 days (48 hours)
Procedure: (§1) Antisense oligonucleotides were incubated with glioblastoma (T98, U87, U373) and medulloblastoma (DAOY) cell lines when they were approximately 60% confluent. Antisense oligonucleotides were added at 5 nanomoles/500 microliters and incubated for 2 days in phosphate buffered saline. Growth of cells lines was measured at 2 days using a standard ^3 H-thymidine assay. Coligan et al., Current Protocols in Immunology, Vol. 2, pg.

[3] = test system: human U87 glioblastoma cells; test: Intracerebral infusion, survival of nude rats with intrastriatal U87 xenografts; assay type: in vivo; conditions: 0.1 nmole/hour continuous infusion over 14 days; saline animals survived only 13 days
Procedure: The effects of infusing c-myb antisense to codons 2-7 on the survival of nude rats with intrastriatal xenografts of human U87 glioblastoma cells was examined. A dose of 0.1 nmole/hour was infused. This dose is equivalent to the delivery of 100 µM of c-myb antisense injected directly into intraflank U87 tumors in 50 Ul volumes on alternate days. Animals received continuous infusions of either c-myb antisense or saline by Alzet Osmotic Minipump (Alza, Palo Alto, Calif.) over a period of 14 days. The pump was implanted immediately above the site of the tumor.

[4] = test system: U87 gliomas; test: Intraflank U87 tumors in nude mice, intratumoral injection; assay type: in vivo, athymic nude mice; conditions: for Change in tumor size at day 21: 100 μM, 50 μl (5 nanomoles/injection) intratumorally every two days, days 13 to 21
Procedure: Solid U87 gliomas were established in the flanks of athymic nude mice aged 4-6 weeks. Each animal received 5×10^6 U87 cells in 200 μl of medium. The cells were injected subcutaneously into one flank through a 25-gauge needle attached to a tuberculin syringe.
Cells were initially grown in a monolayer at 37° C. in DMEM medium containing 10% fetal calf serum, 2 mM glutamine, 1000 IU/ml of penicillin, and 100 μg/ml of streptomycin. Cells were harvested from culture flasks using trypsin immediately before injection and were kept on ice until the time of injection. Before injection the number of viable cells were confirmed by trypan blue exclusion. Past experience has shown that approximately 90% of tumors will successfully grow in the flank after U87 cell inoculation.
Tumors were allowed to grow for 14 days. Tumor size was evaluated with Vernier calipers using the formula 1/2 length(width)^2 where the length was the longest dimension and the width was the diameter perpendicular to the length. AONcmyb(2-7) was then injected using a Hamilton syringe directly into the tumor at a concentration of 0, 1, 10, or 100 μM in 50 μl volumes on alternate days for 8 days (FIG. 1).
The effects of administering 100 μM concentrations of AONcmyb(2-7) and AONcmyb(182-188) with their corresponding nonsense oligonucleotides, NONcmyb(2-7) and NONcmyb(182-188) along with Hank's Balanced Salt Solution as controls was compared. From days 13 to 21 animals received 50 μl(5 nanomoles/injection) injections intratumorally of either antisense, nonsense, or HBSS every two days.

[5] = test system: U87 glioblastoma cell line; test: 3H-thymidine assay of U87 cell proliferation; assay type: cell-based, human; conditions: U87 cells, 5 nanomoles/500 microliters; for 3H-thymidine incorporation, mean ± SEM: 2 days; for % Control (proliferation): 2 days (48 hours)
Procedure: as §1

[6] = test system: DAOY medulloblastoma cell line; test: 3H-thymidine assay of DAOY cell proliferation; assay type: cell-based, human; conditions: DAOY cells, 5 nanomoles/500 microliters; for 3H-thymidine incorporation, mean ± SEM: 2 days; for % Control (proliferation): 2 days (48 hours)
Procedure: as §1

[7] = test system: EGF receptor; test: EGF receptor expression by flow cytometry in T98 and U87 cells; assay type: cell-based, human; conditions: 10 μM, 48 hours
Procedure: The effects of c-myb antisense on the expression of epidermal growth factor (EGF) receptors in T98 and U87 cells in vitro was examined using a flow cytometric approach to quantify fluorescently labeled receptors. T98 and U87 cell lines that were treated with 10 μM antisense oligonucleotides for 48 hours were harvested. About 10^5 10^6 (number of cells) were incubated with fluorescently labeled antibody to EGF receptor (available from Upstate Biotech, Inc.) for 24 hours. The cells were then analyzed using a Beckman FACS cell sorter.
Cells for receptor expression assays were harvested, washed twice in PBS and fixed in 70% ethanol of 2% paraformaldehyde. After washing, cells were incubated with appropriate concentrations of specific receptor antibodies for 2-12 hours. Antibody conjugated FITC was then added to the cell suspensions. Cells were washed well between steps and resuspended in Hanks balanced salt solution, 1% sodium azide, and 1% bovine serum albumin. FITC fluorescence was then assayed by flow cytometry counting 10,000 cells per sample. The amount of fluorescently labeled EGF receptor and PDGF receptor were determined by standard flow cytometry analysis.

[8] = test system: T98 glioblastoma cell line; test: 3H-thymidine assay of T98 cell proliferation; assay type: cell-based, human; conditions: T98 cells, 5 nanomoles/500 microliters; for 3H-thymidine incorporation, mean ± SEM: 2 days; for % Control (proliferation): 2 days (48 hours)
Procedure: as §1

5'-GTG CCG GGG TCT TCG GGC-3' (antisense GTGCCGGGGTCTTCGGGC; chemistry not given here) [AONcmyb(2-7), antisense to the initiator region of c-myb, codons 2-7]
Factor by which the dose used is below the toxic level for antisense in the brain [1]: 30 times | 3H-thymidine incorporation, mean ± SEM [2]: 402,504 ± 49,647 dpm | % Control (proliferation) [2]: 52% | Animals with increased survival times [3]: 25% | Suppression of tumor growth, comparison of concentrations ([4]; 100 μM versus 0, 1, 10 μM, 50 μl intratumoral on alternate days for 8 days): most effective in suppressing tumor growth | Change in tumor size at day 21 [4]: no significant change | 3H-thymidine incorporation, mean ± SEM [5]: 74,688 ± 10,145 dpm | % Control (proliferation) [5]: 20% | 3H-thymidine incorporation, mean ± SEM [6]: 604,061 ± 59,989 dpm | % Control (proliferation) [6]: 53% | EGF receptor binding, % of control levels [7]: 13%-30% | 3H-thymidine incorporation, mean ± SEM [8]: 67,318 ± 6,183 dpm | % Control (proliferation) [8]: 53%

5'-TGTAGAATTCCAGTGGTTCTT-3' (antisense TGTAGAATTCCAGTGGTTCTT; chemistry not given here) [AONcmyb(182-188)]
3H-thymidine incorporation, mean ± SEM [2]: 588,082 ± 25,836 dpm | % Control (proliferation) [2]: 76% | Change in tumor size at day 21 [4]: no significant change | 3H-thymidine incorporation, mean ± SEM [5]: 92,968 ± 37,259 dpm | % Control (proliferation) [5]: 25% | 3H-thymidine incorporation, mean ± SEM [6]: 517,725 ± 105,450 dpm | % Control (proliferation) [6]: 45% | EGF receptor binding, % of control levels [7]: 30%-35% | 3H-thymidine incorporation, mean ± SEM [8]: 78,457 ± 3,224 dpm | % Control (proliferation) [8]: 61%
